Data: the supplement of paper PMC10307832

What was measured:
Experiment in all cases: relative viability (nuclei count vs DMSO), 5 days (fraction); higher = more cells survive
[1] = compound: C1/C(=C\C2=CC=CS2)/C(=O)/C(=C/C3=CC=CS3)/C1 + CC(=O)c1c(C)c2cnc(Nc3ccc(N4CCNCC4)cn3)nc2n(C2CCCC2)c1=O [Palbociclib] (partner 0.5 µM)
Summary of the method: (§1)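 Cells from lung cancer lines were seeded into 1536-well plates and, one day later, dosed by pin tool. Treatments were either a single drug or a fixed dose of an anchor drug with five library-drug doses (not always all listed) in √10 steps. After 5 days, nuclei were stained in a one-step fixation (final 0.05% Triton X-100, 1% formaldehyde, 1 ug/ml Hoechst) and counted on 4× images, and relative viability is the treated-to-vehicle nuclei ratio, as the median of duplicate plates.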

TPCA-1 + Phenformin = compound: C1=CC(=CC=C1C2=CC(=C(S2)NC(=O)N)C(=O)N)F [TPCA-1] + N=C(N)NC(=N)NCCc1ccccc1 [Phenformin] (partner 250 µM)
Summary of the method: as §1

TPCA-1 + Olaparib = compound: C1=CC(=CC=C1C2=CC(=C(S2)NC(=O)N)C(=O)N)F [TPCA-1] + O=C(c1cc(Cc2n[nH]c(=O)c3ccccc23)ccc1F)N1CCN(C(=O)C2CC2)CC1 [Olaparib] (partner 8 µM)
Summary of the method: as §1

[2] = compound: C[C@]12O[C@H](C[C@]1(O)CO)n1c3ccccc3c3c4c(c5c6ccccc6n2c5c31)CNC4=O [Lestaurtinib] + N=C(N)NC(=N)NCCc1ccccc1 [Phenformin] (partner 250 µM)
Summary of the method: as §1

Cell Line | relative viability ([1]; first compound 0.2 µM) | relative viability ([1]; first compound 0.6325 µM) | relative viability ([1]; first compound 2 µM) | relative viability ([1]; first compound 6.325 µM) | relative viability ([1]; first compound 20 µM) | relative viability (TPCA-1 + Phenformin; first compound 0.04 µM) | relative viability (TPCA-1 + Phenformin; first compound 0.1265 µM) | relative viability (TPCA-1 + Phenformin; first compound 0.4 µM) | relative viability (TPCA-1 + Phenformin; first compound 1.265 µM) | relative viability (TPCA-1 + Phenformin; first compound 4 µM) | relative viability (TPCA-1 + Olaparib; first compound 0.04 µM) | relative viability (TPCA-1 + Olaparib; first compound 0.1265 µM) | relative viability (TPCA-1 + Olaparib; first compound 0.4 µM) | relative viability (TPCA-1 + Olaparib; first compound 1.265 µM) | relative viability (TPCA-1 + Olaparib; first compound 4 µM) | relative viability ([2]; first compound 0.005 µM) | relative viability ([2]; first compound 0.01581 µM) | relative viability ([2]; first compound 0.05 µM) | relative viability ([2]; first compound 0.1581 µM) | relative viability ([2]; first compound 0.5 µM)
NCI-H2170 | 0.386 | 0.382 | 0.376 | 0.248 | 0.393 | 0.478 | 0.401 | 0.424 | 0.402 | 0.362 | 0.668 | 0.568 | 0.65 | 0.508 | 0.439 | 0.41 | 0.424 | 0.42 | 0.32 | 0.244
HCC-366 | 0.413 | 0.388 | 0.454 | 0.358 | 0.43 | 0.727 | 0.617 | 0.652 | 0.673 | 0.098 |  | 0.304 | 0.37 | 0.348 | 0.239 | 0.618 | 0.642 | 0.656 | 0.603 | 0.48
NCI-H2347 | 0.381 | 0.454 | 0.449 | 0.398 | 0.413 | 0.652 | 0.331 | 0.451 | 0.262 | 0.264 | 0.565 | 0.54 | 0.607 | 0.578 | 0.545 | 0.304 | 0.448 | 0.316 | 0.309 | 0.39
COR-L 105 | 0.379 | 0.405 | 0.443 | 0.43 | 0.401 | 0.471 | 0.406 | 0.448 | 0.368 | 0.323 | 0.712 | 0.7 | 0.665 | 0.752 | 0.697 | 0.465 | 0.476 | 0.371 | 0.353 | 0.238
201T | 0.348 | 0.37 | 0.349 | 0.353 | 0.348 | 0.484 | 0.454 | 0.425 | 0.378 | 0.426 | 0.857 | 0.827 | 0.841 | 0.83 | 0.87 | 0.467 | 0.491 | 0.363 | 0.418 | 0.278
NCI-H2126 | 0.343 | 0.339 | 0.363 | 0.332 | 0.374 | 0.561 | 0.499 | 0.53 | 0.537 | 0.44 | 0.951 | 0.924 | 0.911 | 0.875 | 0.88 | 0.525 | 0.565 | 0.482 | 0.412 | 0.326
LC-2-ad | 0.526 | 0.483 | 0.488 | 0.333 | 0.481 | 0.679 | 0.523 | 0.607 | 0.575 | 0.319 | 0.689 | 0.783 | 0.688 | 0.745 | 0.578 | 0.554 | 0.772 | 0.561 | 0.385 | 0.26
NCI-H2085 | 0.482 | 0.5 | 0.484 | 0.46 | 0.495 | 0.837 | 0.616 | 0.693 | 0.555 | 0.389 |  | 0.74 | 0.738 | 0.839 | 0.683 | 0.716 | 0.664 | 0.602 | 0.65 | 0.492
NCI-H358 | 0.187 | 0.135 | 0.152 | 0.143 | 0.125 | 0.359 | 0.287 | 0.379 | 0.333 | 0.206 | 0.619 | 0.48 | 0.646 | 0.546 | 0.32 | 0.338 | 0.295 | 0.208 | 0.137 | 0.0849
H3255 | 0.325 | 0.33 | 0.324 | 0.308 | 0.297 | 0.39 | 0.39 | 0.353 | 0.356 | 0.316 | 0.577 | 0.542 | 0.536 | 0.527 | 0.507 | 0.313 | 0.315 | 0.379 | 0.286 | 0.294
NCI-H2228 | 0.784 | 0.697 | 0.61 | 0.793 | 0.686 | 0.396 | 0.292 | 0.412 | 0.285 | 0.272 | 0.731 | 0.624 | 0.789 | 0.56 | 0.432 | 0.235 | 0.215 | 0.237 | 0.218 | 0.127
CAL-12T | 0.531 | 0.654 | 0.555 | 0.49 | 0.489 | 0.622 | 0.51 | 0.612 | 0.51 | 0.172 | 0.621 | 0.734 | 0.732 | 0.638 | 0.753 | 0.488 | 0.622 | 0.375 | 0.32 | 0.189
A-427 | 0.546 | 0.552 | 0.519 | 0.481 | 0.5 | 0.423 | 0.283 | 0.371 | 0.19 | 0.145 | 0.818 | 0.686 | 0.778 | 0.777 | 0.65 | 0.339 | 0.3 | 0.23 | 0.225 | 0.149
HARA | 0.278 | 0.238 | 0.337 | 0.196 | 0.32 | 0.476 | 0.45 | 0.469 | 0.484 | 0.162 | 0.884 | 0.765 | 1.09 | 0.742 | 0.656 | 0.507 | 0.477 | 0.369 | 0.358 | 0.251
NCI-H1793 | 0.343 | 0.368 | 0.351 | 0.306 | 0.315 | 0.364 |  | 0.297 | 0.402 | 0.261 | 0.982 | 0.735 | 1.1 | 0.821 | 0.546 | 0.353 | 0.447 | 0.296 | 0.436 | 0.3
NCI-H1623 |  |  |  |  |  | 0.592 | 0.522 | 0.62 | 0.574 | 0.4 |  |  |  |  |  | 0.609 | 0.593 | 0.557 | 0.525 | 0.51
NCI-H2009 | 0.178 | 0.217 | 0.255 |  | 0.208 | 0.542 | 0.486 | 0.512 | 0.429 | 0.44 | 0.697 | 0.733 | 0.626 | 0.753 | 0.817 | 0.51 | 0.46 | 0.437 | 0.465 | 0.235
